Source: patent US6900221B1, “Stable polymorph on N-(3-ethynylphenyl)-6, 7-bis (2methoxyethoxy)-4-quinazolinamine hydrochloride, methods of production, and pharmaceutical uses thereof” (OSI Pharmaceuticals, Inc., priority 1999, dated 2005)
Blank lines part the entries; values can stand above or below the molecule they belong to.

Key:
[1] = Thermodynamic stability of the polymorphic forms; assay type: physicochemical; conditions: hydrochloride polymorph forms compared
[2] = Solubility in aqueous compositions; assay type: physicochemical; conditions: compared with the hydrochloride compound
[3] = test system: refractory ovarian cancer; experiment: Phase II single agent study in refractory ovarian cancer; assay type: in vivo, human; conditions: 150 mg daily, preliminary results
From the text: Evidence of anti-tumor activity can also be seen in the patients with ovarian cancer in the on-going Phase II study.

[4] = test system: cancer patients with multiple tumor types; experiment: Phase I clinical studies, preliminary evidence of effectiveness in cancer patients; assay type: in vivo, human; conditions: one Phase I study of 28 patients
[5] = test system: advanced head and neck cancer; experiment: Phase II single agent study in advanced head and neck cancer; conditions: 150 mg daily
[6] = Phase I clinical studies, safety; assay type: in vivo, human
Description: […]. […] In a daily dosing regimen study the dose limiting toxicity at 200 mg/day was diarrhea. This observed side effect was effectively controlled at the 150 mg daily dose level using Loperamide (Imodium®). […] The rash has a unique histopathology of PMN infiltration with mild epidermal hyperproliferation. It is not consistent with drug hypersensitivity nor does it appear to be a “named” dermatological condition. This rash has not been a significant impediment to patients staying on the Phase II trials. […]. […] For example, in one Phase I study of 28 patients, 8 patients remain alive over a year after inception of treatment and 12 patients remained alive from 9-22 months.

[7] = test system: refractory non-small cell lung cancer (NSCLC); conditions: 150 mg daily, first 19 evaluable patients
From the text: Qualification criteria for the open label, single agent study required the patients to have failed platinum-based chemotherapy and to have tumors that are histopathologically confirmed to be EGFR positive. The primary endpoint in the study is response rate with stable disease and time-to-progression amongst the secondary end-points.

[8] = advanced head and neck cancer, preliminary results

thermodynamic stability [1]: partially reduced stability
SMILES: C#Cc1cccc(Nc2ncnc3cc(OCCOC)c(OCCOC)cc23)c1.Cl [hydrochloride compound, [6,7-bis(2-methoxyethoxy)-quinazolin-4-yl]-(3-ethynylphenyl)amine hydrochloride, reference compound]

solubility in aqueous compositions [2]: more soluble
SMILES: C#Cc1cccc(Nc2ncnc3cc(OCCOC)c(OCCOC)cc23)c1 [mesylate compounds, N-(3-ethynylphenyl)-6,7-bis(2-methoxyethoxy)-4-quinazolinamine]

thermodynamic stability [1]: thermodynamically less stable
SMILES: C#Cc1cccc(Nc2ncnc3cc(OCCOC)c(OCCOC)cc23)c1.Cl [polymorph A, N-(3-ethynylphenyl)-6,7-bis(2-methoxyethoxy)-4-quinazolinamine hydrochloride]

patients reporting acneiform rash ([5]; first group of patients in the head and neck cancer study): approximately 70% | thermodynamic stability [1]: thermodynamically most stable
SMILES: C#Cc1cccc(Nc2ncnc3cc(OCCOC)c(OCCOC)cc23)c1.Cl [polymorph B, N-(3-ethynylphenyl)-6,7-bis(2-methoxyethoxy)-4-quinazolinamine hydrochloride]
patients with objective partial responses [3]: 2 patients | patients with stabilization of disease status [3]: 4 patients | patients alive over a year after inception of treatment [4]: 8 patients | patients remained alive from 9-22 months [4]: 12 patients | patients with objective partial responses [5, 8]: 3 patients | patients with stabilization of disease status [5, 8]: 9 patients | most significant toxicity ([6]; 150 mg daily): monomorphic acneiform rash | severity of adverse events ([6]; Phase I, volunteers and cancer patients, dose of 150 mg/day): no adverse events that were greater than moderate in severity | dose limiting toxicity ([6]; daily dosing regimen study, 200 mg/day): diarrhea | safety profile ([6]; total of 290 patients in Phase I and ongoing Phase II studies): well tolerated safety profile | patients with objective partial responses [7]: 5 patients | patients with stabilization of disease status [7]: 4 patients
